Reference: US9073881B2, “Benzoic acid derivatives” (HOFFMANN-LA ROCHE INC., priority 2011, dated 2015)

Target: Human eIF4E (Homo sapiens (Human), UniProt P06730)
Test: Human eIF4E/4G binding assay (time-resolved fluorescence, HH-eIF4E and biotin-labeled 4G2 peptide)
Conditions: inhibition of binding of His-tagged human eIF4E (aa 28-217) to biotin-labeled 4G2 peptide
Description: The protein was solubilized with 8 M urea and purified under denaturing conditions using nickel-charged HisTrap HP columns (GE Healthcare). The protein was refolded by diluting to approximately 0.25 mg/mL with 6 M urea, 20 mM Hepes pH 7.0, 500 mM NaCl, 1 mM DTT, 1 mM EDTA, and 0.5 M arginine.HCl, and then dialyzing overnight into the same buffer without the urea. The protein was further dialyzed into 20 mM Hepes pH 6.5, 50 mM NaCl, 1 mM EDTA, and 1 mM DTT, filtered, and then concentrated using Hitrap SP sepharose FF columns (GE Healthcare). The protein was dialyzed into 20 mM Hepes pH 7.0, 500 mM NaCl, 5 mM DTT, and 10% glycerol and stored at −80° C. until use. Test compounds (1.6 mM stock in DMSO) were diluted 3 fold in series in DMSO. Compound solutions were diluted 4 fold in Assay Buffer (50 mM sodium phosphate, pH 6.5, 50 mM KCl, 1 mM DTT and 0.5 mg/mL gammaglobulin). […] The samples were incubated at room temperature for 20 minutes. […] IC50 values were calculated using Condoseo software (Genedata AG).

Chain of Human eIF4E (P06730 28-217): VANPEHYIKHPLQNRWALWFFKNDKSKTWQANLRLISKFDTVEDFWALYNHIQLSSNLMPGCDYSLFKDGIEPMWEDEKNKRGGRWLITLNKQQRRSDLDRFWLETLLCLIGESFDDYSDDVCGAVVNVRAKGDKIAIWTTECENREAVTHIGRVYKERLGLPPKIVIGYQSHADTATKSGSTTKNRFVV

IC50 | Compound
2.6 µM | O=C(O)c1cc(-c2nc(-c3ccc(OC(F)(F)F)cc3)cs2)ccc1-c1ccccc1[N+](=O)[O-] [Example 2, 2′-Nitro-4-[4-(4-trifluoromethoxy-phenyl)-thiazol-2-yl]-biphenyl-2-carboxylic acid]
9.9 µM | O=C(O)c1cc(-c2nc(-c3ccc(OC(F)F)cc3)cs2)ccc1-c1ccccc1[N+](=O)[O-] [Example 3, 4-[4-(4-Difluoromethoxy-phenyl)-thiazol-2-yl]-2′-nitro-biphenyl-2-carboxylic acid]
2 µM | O=C(O)c1cc(-c2nc(-c3ccc(Cl)c(Cl)c3)cs2)ccc1-c1cc(C(F)(F)F)ccc1[N+](=O)[O-] [Example 4, 4-[4-(3,4-Dichloro-phenyl)-thiazol-2-yl]-2′-nitro-5′-trifluoromethyl-biphenyl-2-carboxylic acid]
23 µM | O=C(O)c1cc(-c2nc(-c3ccccc3C(F)(F)F)cs2)ccc1-c1ccccc1[N+](=O)[O-] [Example 5, 2′-Nitro-4-[4-(2-trifluoromethyl-phenyl)-thiazol-2-yl]-biphenyl-2-carboxylic acid]
8.3 µM | O=C(O)c1cc(-c2nc(-c3cccc(C(F)(F)F)c3)cs2)ccc1-c1ccccc1[N+](=O)[O-] [Example 6, 2′-Nitro-4-[4-(3-trifluoromethyl-phenyl)-thiazol-2-yl]-biphenyl-2-carboxylic acid]
2.4 µM | O=C(O)c1cc(-c2nc(-c3ccc(C(F)(F)F)cc3)cs2)ccc1-c1ccccc1[N+](=O)[O-] [Example 7, 2′-Nitro-4-[4-(4-trifluoromethyl-phenyl)-thiazol-2-yl]-biphenyl-2-carboxylic acid]
2.5 µM | O=C(O)c1cc(-c2nc(-c3cc(C(F)(F)F)cc(C(F)(F)F)c3)cs2)ccc1-c1ccccc1[N+](=O)[O-] [Example 8, 4-[4-(3,5-Bis-trifluoromethyl-phenyl)-thiazol-2-yl]-2′-nitro-biphenyl-2-carboxylic acid]
5.9 µM | Cc1cc(-c2csc(-c3ccc(-c4ccccc4[N+](=O)[O-])c(C(=O)O)c3)n2)ccc1Cl [Example 9, 4-[4-(4-Chloro-3-methyl-phenyl)-thiazol-2-yl]-2′-nitro-biphenyl-2-carboxylic acid]
3.5 µM | O=C(O)c1cc(-c2nc(-c3ccc(Cl)cc3Cl)cs2)ccc1-c1ccccc1[N+](=O)[O-] [Example 10, 4-[4-(2,4-Dichloro-phenyl)-thiazol-2-yl]-2′-nitro-biphenyl-2-carboxylic acid]
2.9 µM | O=C(O)c1cc(-c2nc(-c3cc(Cl)ccc3Cl)cs2)ccc1-c1ccccc1[N+](=O)[O-] [Example 12, 4-[4-(2,5-Dichloro-phenyl)-thiazol-2-yl]-2′-nitro-biphenyl-2-carboxylic acid]
5.2 µM | O=C(O)c1cc(-c2nc(-c3ccc(Cl)cc3)cs2)ccc1-c1ccccc1[N+](=O)[O-] [Example 13, 4-[4-(4-Chloro-phenyl)-thiazol-2-yl]-2′-nitro-biphenyl-2-carboxylic acid]
1.3 µM | O=C(O)c1cc(-c2nc(-c3ccc(Cl)c(Cl)c3)cs2)ccc1-c1cc(Cl)ccc1[N+](=O)[O-] [Example 14, 5′-Chloro-4-[4-(3,4-dichloro-phenyl)-thiazol-2-yl]-2′-nitro-biphenyl-2-carboxylic acid]
2.8 µM | O=C(O)c1cc(-c2nc(-c3ccc(Cl)c(Cl)c3)cs2)ccc1-c1ccccc1[N+](=O)[O-] [Example 15, 4-[4-(3,4-Dichloro-phenyl)-thiazol-2-yl]-2′-nitro-biphenyl-2-carboxylic acid]
0.5 µM | O=C(O)c1cc(-c2nc(-c3ccc(Cl)c(Cl)c3)cs2)ccc1-c1ccccc1[N+](=O)[O-] [Example 16, 4-[4-(3,4-Dichloro-phenyl)-thiazol-2-yl]-2′-nitro-biphenyl-2-carboxylic acid]
3.1 µM | O=C(O)c1cc(-c2nc(-c3cccc(Cl)c3)cs2)ccc1-c1ccccc1[N+](=O)[O-] [Example 17, 4-[4-(3-Chloro-phenyl)-thiazol-2-yl]-2′-nitro-biphenyl-2-carboxylic acid]
5 µM | O=C(O)c1cc(-c2nc(-c3ccc(F)c(Cl)c3)cs2)ccc1-c1ccccc1[N+](=O)[O-] [Example 18, 4-[4-(3-Chloro-4-fluoro-phenyl)-thiazol-2-yl]-2′-nitro-biphenyl-2-carboxylic acid]
> 80 µM | O=C(O)c1cc(-c2nc(-c3c(F)cccc3F)cs2)ccc1-c1ccccc1[N+](=O)[O-] [Example 20, 4-[4-(2,6-Difluoro-phenyl)-thiazol-2-yl]-2′-nitro-biphenyl-2-carboxylic acid]
2.6 µM | O=C(O)c1cc(-c2nc(-c3cccc(F)c3)cs2)ccc1-c1ccccc1[N+](=O)[O-] [Example 24, 4-[4-(3-Fluoro-phenyl)-thiazol-2-yl]-2′-nitro-biphenyl-2-carboxylic acid]

IC50 | Compound
4.4 µM | O=C(O)c1cc(-c2nc(-c3ccc(Br)s3)cs2)ccc1-c1ccccc1[N+](=O)[O-] [Example 25, 4-[4-(5-Bromo-thiophen-2-yl)-thiazol-2-yl]-2′-nitro-biphenyl-2-carboxylic acid]
3 µM | O=C(O)c1cc(-c2nc(-c3cccc(Br)c3)cs2)ccc1-c1ccccc1[N+](=O)[O-] [Example 26, 4-[4-(3-Bromo-phenyl)-thiazol-2-yl]-2′-nitro-biphenyl-2-carboxylic acid]
4 µM | O=C(O)c1cc(-c2nc(-c3ccc(Br)cc3)cs2)ccc1-c1ccccc1[N+](=O)[O-] [Example 27, 4-[4-(4-Bromo-phenyl)-thiazol-2-yl]-2′-nitro-biphenyl-2-carboxylic acid]
3.2 µM | COc1ccc(-c2ccc(-c3nc(-c4ccc(Cl)c(Cl)c4)cs3)cc2C(=O)O)c([N+](=O)[O-])c1 [Example 28, 4-[4-(3,4-Dichloro-phenyl)-thiazol-2-yl]-4′-methoxy-2′-nitro-biphenyl-2-carboxylic acid]
8.3 µM | COc1ccc(-c2csc(-c3ccc(-c4ccccc4[N+](=O)[O-])c(C(=O)O)c3)n2)cc1 [Example 32, 4-[4-(4-Methoxy-phenyl)-thiazol-2-yl]-2′-nitro-biphenyl-2-carboxylic acid]
> 80 µM | CS(=O)(=O)c1ccc(-c2csc(-c3ccc(-c4ccccc4[N+](=O)[O-])c(C(=O)O)c3)n2)cc1 [Example 33, 4-[4-(4-Methanesulfonyl-phenyl)-thiazol-2-yl]-2′-nitro-biphenyl-2-carboxylic acid]
> 80 µM | O=C(O)c1cc(-c2nc(-c3ccccn3)cs2)ccc1-c1ccccc1[N+](=O)[O-] [Example 37, 2′-Nitro-4-(4-pyridin-2-yl-thiazol-2-yl)-biphenyl-2-carboxylic acid]
> 80 µM | O=C(O)c1cc(-c2nc(-c3cccnc3)cs2)ccc1-c1ccccc1[N+](=O)[O-] [Example 38, 2′-Nitro-4-(4-pyridin-3-yl-thiazol-2-yl)-biphenyl-2-carboxylic acid]
> 80 µM | O=C(O)c1cc(-c2nc(-c3ccncc3)cs2)ccc1-c1ccccc1[N+](=O)[O-] [Example 39, 2′-Nitro-4-(4-pyridin-4-yl-thiazol-2-yl)-biphenyl-2-carboxylic acid]
4.2 µM | Cc1ccc(-c2csc(-c3ccc(-c4ccccc4[N+](=O)[O-])c(C(=O)O)c3)n2)c(C)c1 [Example 40, 4-[4-(2,4-Dimethyl-phenyl)-thiazol-2-yl]-2′-nitro-biphenyl-2-carboxylic acid]
4.1 µM | O=C(O)c1cc(-c2nc(-c3ccc(Cl)c(Cl)c3)cs2)ccc1-c1ccc([N+](=O)[O-])cc1 [Example 45, 4-[4-(3,4-Dichloro-phenyl)-thiazol-2-yl]-4′-nitro-biphenyl-2-carboxylic acid]
3.8 µM | O=C(O)c1cc(-c2nc(-c3ccc(Cl)c(Cl)c3)cs2)ccc1-c1cccc([N+](=O)[O-])c1 [Example 46, 4-[4-(3,4-Dichloro-phenyl)-thiazol-2-yl]-3′-nitro-biphenyl-2-carboxylic acid]
> 80 µM | CCN(CC)CCCNC(=O)c1ccc(-c2ccc(-c3nc(-c4ccc(Cl)c(Cl)c4)cs3)cc2C(=O)O)cc1 [Example 47, 4-[4-(3,4-Dichloro-phenyl)-thiazol-2-yl]-4′-(3-diethylamino-propylcarbamoyl)-biphenyl-2-carboxylic acid]
> 80 µM | CN(C)CCCNC(=O)c1ccc(-c2ccc(-c3nc(-c4ccc(Cl)c(Cl)c4)cs3)cc2C(=O)O)cc1 [Example 48, 4-[4-(3,4-Dichloro-phenyl)-thiazol-2-yl]-4′-(3-dimethylamino-propylcarbamoyl)-biphenyl-2-carboxylic acid]
> 80 µM | CN(C)CCNC(=O)c1ccc(-c2ccc(-c3nc(-c4ccc(Cl)c(Cl)c4)cs3)cc2C(=O)O)cc1 [Example 49, 4-[4-(3,4-Dichloro-phenyl)-thiazol-2-yl]-4′-(2-dimethylamino-ethylcarbamoyl)-biphenyl-2-carboxylic acid]
7.8 µM | Cn1nccc1CNC(=O)c1ccc(-c2ccc(-c3nc(-c4ccc(Cl)c(Cl)c4)cs3)cc2C(=O)O)cc1 [Example 50, 4-[4-(3,4-Dichloro-phenyl)-thiazol-2-yl]-4′-[(2-methyl-2H-pyrazol-3-ylmethyl)-carbamoyl]-biphenyl-2-carboxylic acid]
> 80 µM | CN1CCC(NC(=O)c2ccc(-c3ccc(-c4nc(-c5ccc(Cl)c(Cl)c5)cs4)cc3C(=O)O)cc2)CC1 [Example 51, 4-[4-(3,4-Dichloro-phenyl)-thiazol-2-yl]-4′-(1-methyl-piperidin-4-ylcarbamoyl)-biphenyl-2-carboxylic acid]
